Source: ChEMBL document CHEMBL6127043, “Design and synthesis of pyrano[2,3-c]pyrazole-4-aminoquinoline hybrids as effective antimalarial compounds” (Eur J Med Chem, 2024)

Assays:
Plasmodium falciparum [1] = assay: Resistance index, ratio of IC50 for antimalarial activity against chloroquine resistant Plasmodium falciparum K1 infected in erythrocytes to IC50 for antimalarial activity against chloroquine sensitive Plasmodium falciparum 3D7 infected in erythrocytes; format: functional
[2] = Selectivity index, ratio of IC50 for cytotoxicity against human WRL68 cells to IC50 for antimalarial activity against Plasmodium falciparum 3D7 infected in erythrocytes; format: toxicity, cell-based; conditions: WRL68 cells versus Plasmodium falciparum 3D7 in erythrocytes, read-out: Ratio IC50
[3] = Cytotoxicity against human WRL68 cells assessed as reduction in cell viability incubated for 72 hrs by MTT assay; format: toxicity, cell-based
[4] = Selectivity index, ratio of IC50 for cytotoxicity against human WRL68 cells to IC50 for antimalarial activity against Plasmodium falciparum K1 infected in erythrocytes; format: toxicity, cell-based; conditions: WRL68 cells versus Plasmodium falciparum K1 in erythrocytes, read-out: Ratio IC50
Plasmodium falciparum [5] = assay: Antimalarial activity against chloroquine-resistant ring stage Plasmodium falciparum K1 infected in erythrocytes assessed as reduction in parasite growth measured at 48 hrs interval by Giemsa staining based microscopic analysis; format: functional, organism-based; conditions: K1, Erythrocyte
Plasmodium falciparum [6] = assay: Antimalarial activity against chloroquine-sensitive ring stage Plasmodium falciparum 3D7 infected in erythrocytes assessed as reduction in parasite growth measured at 48 hrs interval by Giemsa staining based microscopic analysis; format: functional, organism-based; conditions: 3D7, Erythrocyte
Plasmodium falciparum [7] = assay: Antimalarial activity against Plasmodium falciparum NF54 incubated for 48 hrs by NBT reagent based assay; format: functional, organism-based; conditions: NF54, 48 h
Plasmodium falciparum [8] = assay: Antimalarial activity against chloroquine-resistant Plasmodium falciparum K1 incubated for 72 hrs by SYBR green I dye based fluorescence analysis; format: functional, organism-based; conditions: K1, 72 h
[9] = Selectivity index, ratio of IC50 for cytotoxicity against African green monkey Vero cells to IC50 for antimalarial activity against Plasmodium falciparum W2; format: toxicity, cell-based; conditions: Vero cells versus Plasmodium falciparum W2, read-out: Ratio IC50

Row | IC50 (Plasmodium falciparum [7]) [nM] | SMILES | Ratio IC50 (Plasmodium falciparum [1]) | selectivity ratio [2] | IC50 at 72 h [3] [nM] | selectivity ratio [4] | IC50 (Plasmodium falciparum [5]) [nM] | IC50 (Plasmodium falciparum [6]) [nM] | IC50 (Plasmodium falciparum [8]) [nM] | selectivity ratio [9]
1 | – | CCOC(=O)c1nn(CCNc2ccnc3cc(Cl)ccc23)c2c1C(c1ccc(Br)cc1)C(C#N)=C(N)O2 (stereo not drawn) | 0.58 | 178 | 5850 | 309 | 19 | 33 | – | –
2 | 100 | O=C(/C=C/c1ccccc1Br)c1ccc(S(=O)(=O)NCCCNc2ccnc3cc(Cl)ccc23)cc1 | – | – | – | – | – | – | – | –
3 | – | CCN(CC)CCCC(C)Nc1ccnc2cc(Cl)ccc12 (stereo not drawn) [CHLOROQUINE PHOSPHATE] | – | – | 60600 | – | – | – | – | –
4 | – | Clc1ccc2c(NCCn3cncc3C3CCCC3)ccnc2c1 | – | – | – | – | – | – | 340 | –
5 | – | CCOC(=O)c1nn(CCNc2ccnc3cc(Cl)ccc23)c2c1C(c1ccccc1OC)C(C#N)=C(N)O2 (stereo not drawn) | 39.18 | 1730 | 26100 | 44 | 592 | 15 | – | –
6 | – | CCOC(=O)c1nn(CCNc2ccnc3cc(Cl)ccc23)c2c1C(c1c(O)ccc3ccccc13)C(C#N)=C(N)O2 (stereo not drawn) | 0.07 | 22 | 6690 | 334 | 20 | 301 | – | –
7 | – | CCOC(=O)c1nn(CCNc2ccnc3cc(Cl)ccc23)c2c1C(c1ccc(O)cc1O)C(C#N)=C(N)O2 (stereo not drawn) | 13.13 | 1220 | 23200 | 93 | 250 | 19 | – | –
8 | – | CCOC(=O)c1nn(CCNc2ccnc3cc(Cl)ccc23)c2c1C(c1cccs1)C(C#N)=C(N)O2 (stereo not drawn) | 1.62 | 2570 | 59500 | 1590 | 37 | 23 | – | –
9 | – | CCOC(=O)c1nn(CCNc2ccnc3cc(Cl)ccc23)c2c1C(c1ccc(OC)cc1)C(C#N)=C(N)O2 (stereo not drawn) | 12.1 | 6220 | 131000 | 514 | 254 | 21 | – | –
10 | – | CCOC(=O)c1nn(CCNc2ccnc3cc(Cl)ccc23)c2c1C(c1ccc(O)c(Br)c1)C(C#N)=C(N)O2 (stereo not drawn) | 10 | 2650 | 61600 | 265 | 232 | 23 | – | –
11 | – | O=C1c2ccc(N3CCN(CCO)CC3)cc2C(=O)N1CCCNc1ccnc2cc(Cl)ccc12 | – | – | – | – | – | – | – | > 4200
12 | – | CCOC(=O)c1nn(CCNc2ccnc3cc(Cl)ccc23)c2c1C(c1ccc(OCC)cc1)C(C#N)=C(N)O2 (stereo not drawn) | 3.57 | 290 | 6980 | 81 | 86 | 24 | – | –
13 | – | CCOC(=O)c1nn(CCNc2ccnc3cc(Cl)ccc23)c2c1C(c1ccccc1)C(C#N)=C(N)O2 (stereo not drawn) | 22.39 | 4360 | 81500 | 195 | 419 | 19 | – | –
14 | – | CCOC(=O)c1nn(CCNc2ccnc3cc(Cl)ccc23)c2c1C(c1ccc(O)cc1)C(C#N)=C(N)O2 (stereo not drawn) | 180.66 | 3200 | 48600 | 18 | 2750 | 15 | – | –
15 | – | CCOC(=O)c1nn(CCNc2ccnc3cc(Cl)ccc23)c2c1C(c1ccc(C#N)cc1)C(C#N)=C(N)O2 (stereo not drawn) | 1.92 | > 9450 | > 183000 | > 4920 | 37 | 19 | – | –
16 | – | CCOC(=O)c1nn(CCNc2ccnc3cc(Cl)ccc23)c2c1C(c1ccco1)C(C#N)=C(N)O2 (stereo not drawn) | 8.34 | 1920 | 47600 | 230 | 207 | 25 | – | –
17 | – | CCOC(=O)c1nn(CCNc2ccnc3cc(Cl)ccc23)c2c1C(c1cccc(O)c1)C(C#N)=C(N)O2 (stereo not drawn) | 77.46 | 3960 | 68600 | 51 | 1340 | 17 | – | –
18 | – | CCOC(=O)c1nn(CCNc2ccnc3cc(Cl)ccc23)c2c1C(c1cccc(OCC)c1)C(C#N)=C(N)O2 (stereo not drawn) | 0.38 | 308 | 20900 | 815 | 26 | 68 | – | –
19 | – | CCOC(=O)c1nn(CCNc2ccnc3cc(Cl)ccc23)c2c1C(c1ccccn1)C(C#N)=C(N)O2 (stereo not drawn) | 1.15 | 4350 | 90500 | 3780 | 24 | 21 | – | –
20 | – | CCOC(=O)c1nn(CCNc2ccnc3cc(Cl)ccc23)c2c1C(c1cccc([N+](=O)[O-])c1)C(C#N)=C(N)O2 (stereo not drawn) | 3.8 | 1260 | 35400 | 333 | 106 | 28 | – | –
21 | – | CCOC(=O)c1nn(CCNc2ccnc3cc(Cl)ccc23)c2c1C(c1ccc([N+](=O)[O-])cc1)C(C#N)=C(N)O2 (stereo not drawn) | 2.92 | 563 | 56900 | 193 | 294 | 110 | – | –
22 | – | CCOC(=O)c1nn(CCNc2ccnc3cc(Cl)ccc23)c2c1C(c1ccc(Cl)cc1)C(C#N)=C(N)O2 (stereo not drawn) | 1.85 | 467 | 12100 | 252 | 48 | 26 | – | –
23 | – | CCOC(=O)c1nn(CCNc2ccnc3cc(Cl)ccc23)c2c1C(c1ccc(C(=O)O)cc1)C(C#N)=C(N)O2 (stereo not drawn) | 5.53 | 2280 | 86500 | 411 | 210 | 38 | – | –
